# Counter-ions that a name gives are not always drawn.
# Legend:
# [1] = system: HLH-30; assay: HLH-30::GFP nuclear localization assay; type: in vivo, C. elegans; settings: dal-1(dt2300); sqIs19 worms, 5 μM IKA
# Method: Adult TX1941 dal-1(dt2300); sqIs19 [hlh-30p::hlh-30::GFP rol-6(+)] worms were placed on NGM plates with either a test chemical or 5% DMSO. GFP was scored at various intervals on live worms without mounting using a Zeiss Axio Zoom. V16 fluorescence dissecting microscope equipped with Axiocam 503. No difference was observed between 2 hour and overnight treatment.
# [2] = system: HeLa cells; assay: Cellular ROS level (CellROX Green); type: cell-based, human; settings: 4 hrs
# Excerpt: SFIGS. 5A-I. Small-molecule activators of TFEB engage different sources of Ca. (SFIG. 5A) HeLa cells were pretreated with or without N-acetyl-cysteine (NAC) for 1 hr and then treated with tert-butyl hydroperoxide (TBHP) or AD for 4 hrs. TBHP and NAC were used as positive and negative controls. A ROS-sensitive DNA dye CellROX Green was used to detect cellular ROS levels after these treatments. Endogenous TFEB localization was also shown. (SFIG. 5B) Quantification of the fluorescent intensity of CellROX Green in cells treated as in a was done by a plate reader. (SFIG. 5C) Quantification of endogenous TFEB nuclear translocation in SFIG. 5A. (SFIG. 5D) Cells were pretreated with or without 25 μM IP3R inhibitor Xestosporine C (Xesto) for 1 hr and then treated with DG, AD and IKA for indicated time. Quantification of TFEB translocation was shown in SFIG. 5E-G (graphs represent mean±s.d. **p<0.01, ***p<0.001, ****p<0.0001). (SFIG. 5H-I) RNA-interference were used to knock down inositol […] receptor type 1 (IP3R1) in GFP-TFEB cells before they were treated with DG, AD and IKA. siLONRF1 was used as a negative control. TFEB translocation percentage was quantified from images as shown in SFIG. 5I (mean±s.d. for n=3 independent experiments, ****p<0.0001). Scale bar, 20 μm.
SMILES,nuclear accumulation of GFP-tagged HLH30 within intestinal cells in adults [1],ROS production [2]
"CC[C@H]1[C@@H]2C=C[C@@H]3[C@H]4C/C=C\C(=O)NCCC[C@@H]5NC(=O)/C(=C(O)/C=C/[C@@H]4C[C@@H]3[C@H]2C[C@H]1C)C5=O [IKA, ikarugamycin]",induce nuclear accumulation,
"CCCCC(CC)CNC(=N)NC(=N)NCCCCCCNC(=N)NC(=N)NCC(CC)CCCC (centres unmarked) [AD, alexidine dihydrochloride]",,comparable ROS production

# From patent publication US20200333357A1, “NOVEL TFEB PATHWAY AGONISTS FOR METABOLIC DISEASES AND AGEING” (The Board of Regents of the University of Texas System, priority 2017, published 2020)
